Key:
[1] = tested on: stimulated primary human T cells; assay: T cell proliferation assay, Condition B (X-VIVO15, 2% HSA and 0.1% AAG); assay type: cell-based; details: Homo sapiens, T-cell, 96 h; Condition B: X-VIVO15 medium containing HSA and α1-Acid Glycoprotein; anti-CD3/anti-CD28 beads, ATP, 4 days; CFSE-lo T cells
Method: (§1) The goal of this study was to determine the potency of ENT1 inhibitors by measuring the rescued proliferation of stimulated primary human T cells incubated in the presence of 100 uM Adenosine triphosphate (ATP), in baseline conditions (condition A) or in the presence of various proteins known to bind small molecules (condition B).
Condition B: X-VIVO15, 2% Human Serum Albumin (HSA) and 0.1% α-1-Acid Glycoprotein (AAG)
(§2) Venous blood from healthy volunteers, all of whom signed an informed consent approved by the Ethics Committee (FOR—UIC—BV-050-01-01 ICF_HBS_HD Version 5.0), was obtained by ImmuneHealth (Centre Hospitalier Universitaire Tivoli, La Louviere, Belgium). Mononuclear cells were collected by density gradient centrifugation, using SepMate-50 tubes (StemCell Technologies, Grenoble, France) and Lymphoprep (Stemcell Technologies) according to the manufacturer's instructions. CD3+ T cells were isolated by immunomagnetic negative selection, using the EasySep Human T Cell Isolation Kit (StemCell Technologies) as per the manufacturer's instructions. CD3+ T cells were stored in heat inactivated FBS (hiFBS; Gibco, ThermoFisher Scientific, Merelbeke, Belgium) and 10% DMSO in liquid nitrogen.
(§3) Purified human CD3+ T cells were thawed and washed once with RPMI1640 medium, UltraGlutamine (Lonza, Verviers, Belgium) containing 10% hiFBS. Cells were resuspended in PBS containing 10% hiFBS at 1×10^7 cells/ml. One volume of cells was combined with a matching volume of 2 μM CFSE solution in PBS, mixed well by pipetting, and incubated at room temperature for 5 minutes under rotation and protected from light. Excess CFSE was quenched by addition of PBS containing 10% hiFBS, and the cells were centrifuged (300×rcf, 7 minutes) and resuspended in X-VIVO15. Cells were again centrifuged and resuspended in X-VIVO15 for counting.
(§4) Cells were resuspended at 1.6×10^6 cells/mL in X-VIVO15 medium (Condition A) or X-VIVO15 medium containing 4% (v/v) HSA (Sigma-Aldrich, Diegem, Belgium) and 0.2% (v/v) ai-Acid Glycoprotein (Sigma-Aldrich, Diegem, Belgium) (Condition B).
(§5) […] of cell suspension (2×10^4 cells) was added to wells of sterile flat-bottom 384-well plates. Cells were activated by adding […] of anti-CD3 anti-CD28 coated microbeads (Dynabeads human T-activator CD3/CD28; Life Technologies, Paisley, UK) suspended in X-VIVO15 medium or X-VIVO15 medium containing 4% (v/v) HSA and 0.2% (v/v) ai-Acid Glycoprotein at a ratio of one microbead per two cells. Serial dilutions of the ENT1 inhibitors were conducted in X-VIVO15 medium and […] of the diluent was added to the wells. Cells were mixed by pipetting up and down and pre-incubated for 30 minutes in a 37° C. humidified tissue culture incubator with 5% CO2. After pre-incubation, cells were cultured in the presence or absence of ATP (Sigma-Aldrich) at a final concentration of […]. The final well volume was 50 μl in all cases. Experiments were performed in biological duplicates. Cells were mixed by pipetting up and down and incubated for 4 days in a 37° C. humidified tissue culture incubator with 5% CO2.
(§6) Samples were run on a BD LSR Fortessa FACS machine (BD FACSDiva Software v9.0.1). Data were analyzed using FlowJo (BD, v10.7.1). T cell proliferation was determined by measuring the frequency of ‘CFSE^lo’ (i.e. CFSE-diluted).
(§7) T cell proliferation data were analyzed using FlowJo software (Version 10.6.2). Dead cells and cellular debris were excluded on the basis of forward and side scatter profile and singlet cells were selected for further analysis.
(§8) T cell proliferation was determined based on the percent CFSE^lo total T cells for each condition. The data were plotted on the y-axis against log molar (M) concentration of ENT1 inhibitors on the x-axis in GraphPad Prism (version 9.0.0). IC50 and IC90 values were generated with the ‘log(agonist) vs. response—Find ECanything(F))’ function with F constrained to 50 or 90, respectively. pICF values were generated by taking the −logECF values.

[2] = tested on: stimulated primary human T cells; assay: T cell proliferation assay, Condition A (X-VIVO15); assay type: cell-based; details: Homo sapiens, T-cell, 96 h; Condition A: X-VIVO15 medium; anti-CD3/anti-CD28 beads, ATP, 4 days; CFSE-lo T cells
Method: as §1, §2, §3, §4, §5, §6, §7, §8

human ENT1 = target: T1, human ENT1 (Homo sapiens, UniProt Q99808); assay: ENT1 binding assay (competition with Sahenta-DY647 on JAR cells); details: competition with SAHENTA-DY647 binding; IC50 categorized; read-out: Binding Assay IC50
T1 construct: JAR cells expressing ENT1 were purchased from ATCC; host or cells: JAR cells
T1 sequence (Q99808 1-456): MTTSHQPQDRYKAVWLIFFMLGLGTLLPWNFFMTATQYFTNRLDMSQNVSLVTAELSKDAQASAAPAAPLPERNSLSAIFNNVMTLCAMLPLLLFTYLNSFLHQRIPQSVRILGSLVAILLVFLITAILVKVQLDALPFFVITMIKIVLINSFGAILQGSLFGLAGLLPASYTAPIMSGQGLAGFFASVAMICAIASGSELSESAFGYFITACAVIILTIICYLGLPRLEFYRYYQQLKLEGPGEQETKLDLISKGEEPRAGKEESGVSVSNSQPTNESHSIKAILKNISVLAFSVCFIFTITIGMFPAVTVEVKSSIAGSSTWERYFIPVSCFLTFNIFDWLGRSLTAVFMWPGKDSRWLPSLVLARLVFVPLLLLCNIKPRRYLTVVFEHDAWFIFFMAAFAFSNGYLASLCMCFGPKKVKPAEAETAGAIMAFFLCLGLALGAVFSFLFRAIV
Summary of the method: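 Whole-cell competition on JAR cells (native ENT1): 50,000 cells pre-incubated 30 min at 4 °C with compound in HBSS/10 mM Hepes/0.1% BSA, then 100 nM Sahenta-DY647 added for 30 min at 4 °C. After washing, fluorescence (Ex 630/Em 670 nm) read; IC50 from sigmoidal fit, averaged as pIC50.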

IC50 (human ENT1) | Structure (SMILES) | IC50 [1] | IC50 [2]
< 1 nM | C[C@H]1O[C@@H](n2c(N)nc3c(N4CCc5ccc([N+](=O)[O-])cc5C4)ncnc32)[C@H](O)[C@@H]1O [Compound 145] | 20 to 500 nM | 1 to 20 nM
1 to 20 nM | CCNc1nc2c(N3CCc4ccc([N+](=O)[O-])cc4C3)ncnc2n1[C@@H]1O[C@H](C)[C@@H](O)[C@H]1O [Compound 150] | 20 to 500 nM | 1 to 20 nM
1 to 20 nM | COC(=O)[C@H]1O[C@@H](n2cnc3c(SCc4ccc([N+](=O)[O-])cc4)ncnc32)[C@H](O)[C@@H]1O [Compound 152] | > 500 nM | > 500 nM
1 to 20 nM | C[C@H]1O[C@@H](n2c(NC3CCCC3)nc3c(N4CCc5ccc(C#N)cc5C4)ncnc32)[C@H](O)[C@@H]1O [Compound 153] | 20 to 500 nM | < 1 nM
1 to 20 nM | CC(C)Nc1nc2c(N3CCc4ccc(C#N)cc4C3)ncnc2n1[C@@H]1O[C@H](C)[C@@H](O)[C@H]1O [Compound 154] | > 500 nM | 1 to 20 nM
1 to 20 nM | OC[C@H]1O[C@@H](n2cnc3c(OCc4ccc(OC(F)(F)F)cc4)nc(Cl)nc32)[C@H](O)[C@@H]1O [Compound 156] | 20 to 500 nM | 1 to 20 nM
1 to 20 nM | C[C@H]1O[C@@H](n2cnc3c(/C=C/c4ccc([N+](=O)[O-])cc4)ncnc32)[C@H](O)[C@@H]1O [Compound 157] | 20 to 500 nM | < 1 nM
1 to 20 nM | OC[C@H]1O[C@@H](n2c(NC3CCCC3)nc3c(SCc4ccccc4)ncnc32)[C@H](O)[C@@H]1O [Compound 158] | 20 to 500 nM | 1 to 20 nM
1 to 20 nM | O=[N+]([O-])c1ccc(CSc2ncnc3c2ncn3[C@@H]2O[C@H](CF)[C@@H](O)[C@H]2O)cc1 [Compound 159] | > 500 nM | 1 to 20 nM
1 to 20 nM | C[C@H]1O[C@@H](n2cnc3c(OCc4ccc(OC(F)F)cc4)nc(Cl)nc32)[C@H](O)[C@@H]1O [Compound 161] | 20 to 500 nM | 1 to 20 nM
1 to 20 nM | OCCOC[C@H]1O[C@@H](n2cnc3c(OCc4ccc(OC(F)F)cc4)nc(Cl)nc32)[C@H](O)[C@@H]1O [Compound 162] | 20 to 500 nM | 1 to 20 nM
20 to 500 nM | C[C@H]1O[C@@H](n2cnc3c(SCc4ccc(C#N)cc4)ncnc32)[C@H](O)[C@@H]1O [Compound 165] | > 500 nM | 1 to 20 nM
20 to 500 nM | C[C@H]1O[C@@H](n2cnc3c(OCc4ccc(C#N)c(F)c4)ncnc32)[C@H](O)[C@@H]1O [Compound 174] | > 500 nM | 1 to 20 nM
20 to 500 nM | C[C@H]1O[C@@H](n2cnc3c(SCc4ccc(OC(F)F)cc4)ncnc32)[C@H](O)[C@@H]1O [Compound 176] | > 500 nM | 1 to 20 nM
20 to 500 nM | C[C@H]1O[C@@H](n2cnc3c(N(C)Cc4ccc([N+](=O)[O-])cc4)ncnc32)[C@H](O)[C@@H]1O [Compound 177] | > 500 nM | 20 to 500 nM
20 to 500 nM | C[C@H]1O[C@@H](n2cnc3c(OCc4ccc(OC(F)(F)F)cc4)ncnc32)[C@H](O)[C@@H]1O [Compound 180] | > 500 nM | 1 to 20 nM
20 to 500 nM | C[C@H]1O[C@@H](n2cnc3c(OCc4ccc(C(F)F)cc4)ncnc32)[C@H](O)[C@@H]1O [Compound 182] | > 500 nM | 1 to 20 nM
20 to 500 nM | C[C@H]1O[C@@H](n2cnc3c(NCc4ccc([N+](=O)[O-])cc4)ncnc32)[C@H](O)[C@@H]1O [Compound 185] | > 500 nM | 20 to 500 nM
20 to 500 nM | Cc1nc(-c2ccc(CSc3ncnc4c3ncn4[C@@H]3O[C@H](C)[C@@H](O)[C@H]3O)cc2)no1 [Compound 186] | > 500 nM | 1 to 20 nM
20 to 500 nM | C[C@H]1O[C@@H](n2cnc3c(OCc4ccc(Cl)cc4)ncnc32)[C@H](O)[C@@H]1O [Compound 187] | > 500 nM | 1 to 20 nM
20 to 500 nM | C[C@H]1O[C@@H](n2cnc3c(OCCc4ccc(C#N)nn4)ncnc32)[C@H](O)[C@@H]1O [Compound 188] | > 500 nM | 1 to 20 nM
20 to 500 nM | CC(=O)NC[C@H]1O[C@@H](n2cnc3c(SCc4ccc([N+](=O)[O-])cc4)ncnc32)[C@H](O)[C@@H]1O [Compound 189] | > 500 nM | 1 to 20 nM
20 to 500 nM | C[C@H]1O[C@@H](n2cnc3c(OCc4ccc(OC(F)F)cc4)nc(N)nc32)[C@H](O)[C@@H]1O [Compound 190] | > 500 nM | 1 to 20 nM
20 to 500 nM | Cc1cc(COc2ncnc3c2ncn3[C@@H]2O[C@H](C)[C@@H](O)[C@H]2O)ccc1[N+](=O)[O-] [Compound 193] | > 500 nM | 20 to 500 nM
20 to 500 nM | C[C@H]1O[C@@H](n2cnc3c(N4CCc5cc([N+](=O)[O-])ccc5C4)ncnc32)[C@H](O)[C@@H]1O [Compound 196] | > 500 nM | 1 to 20 nM
20 to 500 nM | NC(=O)COC[C@H]1O[C@@H](n2cnc3c(OCCc4ccc([N+](=O)[O-])cc4)ncnc32)[C@H](O)[C@@H]1O [Compound 199] | > 500 nM | 20 to 500 nM
20 to 500 nM | C[C@H]1O[C@@H](n2cnc3c(OCc4cc(F)c(F)c(F)c4)ncnc32)[C@H](O)[C@@H]1O [Compound 200] | > 500 nM | 1 to 20 nM
20 to 500 nM | O=[N+]([O-])c1ccc(CCOc2ncnc3c2ncn3[C@@H]2O[C@H](COCCO)[C@@H](O)[C@H]2O)cc1 [Compound 203] | > 500 nM | 1 to 20 nM

— patent US20260184712A1, “Heterocyclic Compounds as ENT Inhibitors and Compounds for Use in the Treatment of Cancers” (iTeos Belgium SA, priority 2022, published 2026)
